Test results: patent publication US8765736B2, “Benzenesulfonamide compounds and the use thereof” (Purdue Pharma L.P., priority 2007, dated 2014)

Molecular target: T1, N-type calcium channel (NTCC) (Homo sapiens, UniProt Q00975)
T1 construct: endogenous in cells; host or cells: IMR32 cells (ATCC), differentiated with dibutyryl cAMP and bromodeoxyuridine
Assay: FLIPR calcium mobilization assay for N-type calcium channel
Assay type: cell-based
Conditions: calcium mobilization in vitro assay; differentiated IMR32 cells, 5 μM nitrendipine, 90 mM KCl
Description: Cell maintenance and differentiation. Unless noted otherwise, cell culture reagents were purchased from Mediatech of Herndon, Md. IMR32 cells (American Type Culture Collection, ATCC, Manassas, Va.) were routinely cultured in growth medium consisting of minimum essential medium containing 10% fetal bovine serum (FBS, Hyclone, Logan, Utah), 100 U/mL penicillin, 100 μg/mL streptomycin, 2 mM L-glutamine, 1 mM sodium pyruvate, and 1×MEM non-essential amino acids. 80-90% confluent flasks of cells were differentiated using the following differentiation medium: Growth medium plus 1 mM dibutyryl cyclic AMP (Sigma, St. Louis, Mo.), and 2.5 μM bromodeoxyuridine (Sigma). Cells were differentiated for 8 days by replacing differentiation medium every 2-3 days.
FLIPR Calcium Mobilization Assay for N-type Calcium Channel. One day prior to performing this assay, differentiated IMR32 cells were treated with 1× CellStripper, and seeded on poly-D-lysine-coated 96-well clear-bottom black plates (Becton Dickinson, Franklin Lakes, N.J.) at 200,000 cells/well. On the day of the assay, the cell plates were washed with IMR32 buffer (127 mM NaCl, 1 mM KCl, 2 mM MgCl2, 700 μM NaH2PO4, 5 mM CaCl2, 5 mM NaHCO3, 8 mM HEPES, 10 mM glucose, pH 7.4), then pre-stimulated with KCl and loaded as follows: 0.05 mL of IMR32 buffer, 0.05 mL of each compound tested diluted in IMR32 buffer containing 20 μM nitrendipine (Sigma), and 0.1 mL KCl dissolved in IMR32 buffer, plus Fluo-4 were added (3 μM final concentration, Molecular Probes, Eugene, Oreg.). Final test compound concentrations ranged from about 846 pM to about 17 μM, final nitrendipine concentration was 5 μM, and final KCl concentration was 90 mM. After 1 hour, the cells were washed twice with 0.05 mL of each compound tested in nitrendipine-containing IMR32 buffer (no KCl or Fluo-4), and then replaced with 0.1 mL of each compound tested in nitrendipine-containing IMR32 buffer. Plates were then transferred to a Fluorimetric Imaging Plate Reader (FLIPR^96, Molecular Devices, Inc., Sunnyvale, Calif.) for assay. The FLIPR measured basal Fluo-4 fluorescence for 315 seconds (i.e., 5 minutes and 15 seconds), then added 0.1 mL KCl agonist dissolved in IMR32 buffer and measured fluorescence for another 45 seconds. Final test compound concentrations on the cells after FLIPR read ranged from about 846 pM to about 17 μM, final nitrendipine concentration was 5 μM, and final KCl concentration was 90 mM. Data were collected over the entire time course and analyzed using Excel, Graph Pad Prism (version 3.02, Graph Pad, San Diego, Calif.), or an in-house non-linear regression analysis software.

T1 sequence (Q00975 whole entry): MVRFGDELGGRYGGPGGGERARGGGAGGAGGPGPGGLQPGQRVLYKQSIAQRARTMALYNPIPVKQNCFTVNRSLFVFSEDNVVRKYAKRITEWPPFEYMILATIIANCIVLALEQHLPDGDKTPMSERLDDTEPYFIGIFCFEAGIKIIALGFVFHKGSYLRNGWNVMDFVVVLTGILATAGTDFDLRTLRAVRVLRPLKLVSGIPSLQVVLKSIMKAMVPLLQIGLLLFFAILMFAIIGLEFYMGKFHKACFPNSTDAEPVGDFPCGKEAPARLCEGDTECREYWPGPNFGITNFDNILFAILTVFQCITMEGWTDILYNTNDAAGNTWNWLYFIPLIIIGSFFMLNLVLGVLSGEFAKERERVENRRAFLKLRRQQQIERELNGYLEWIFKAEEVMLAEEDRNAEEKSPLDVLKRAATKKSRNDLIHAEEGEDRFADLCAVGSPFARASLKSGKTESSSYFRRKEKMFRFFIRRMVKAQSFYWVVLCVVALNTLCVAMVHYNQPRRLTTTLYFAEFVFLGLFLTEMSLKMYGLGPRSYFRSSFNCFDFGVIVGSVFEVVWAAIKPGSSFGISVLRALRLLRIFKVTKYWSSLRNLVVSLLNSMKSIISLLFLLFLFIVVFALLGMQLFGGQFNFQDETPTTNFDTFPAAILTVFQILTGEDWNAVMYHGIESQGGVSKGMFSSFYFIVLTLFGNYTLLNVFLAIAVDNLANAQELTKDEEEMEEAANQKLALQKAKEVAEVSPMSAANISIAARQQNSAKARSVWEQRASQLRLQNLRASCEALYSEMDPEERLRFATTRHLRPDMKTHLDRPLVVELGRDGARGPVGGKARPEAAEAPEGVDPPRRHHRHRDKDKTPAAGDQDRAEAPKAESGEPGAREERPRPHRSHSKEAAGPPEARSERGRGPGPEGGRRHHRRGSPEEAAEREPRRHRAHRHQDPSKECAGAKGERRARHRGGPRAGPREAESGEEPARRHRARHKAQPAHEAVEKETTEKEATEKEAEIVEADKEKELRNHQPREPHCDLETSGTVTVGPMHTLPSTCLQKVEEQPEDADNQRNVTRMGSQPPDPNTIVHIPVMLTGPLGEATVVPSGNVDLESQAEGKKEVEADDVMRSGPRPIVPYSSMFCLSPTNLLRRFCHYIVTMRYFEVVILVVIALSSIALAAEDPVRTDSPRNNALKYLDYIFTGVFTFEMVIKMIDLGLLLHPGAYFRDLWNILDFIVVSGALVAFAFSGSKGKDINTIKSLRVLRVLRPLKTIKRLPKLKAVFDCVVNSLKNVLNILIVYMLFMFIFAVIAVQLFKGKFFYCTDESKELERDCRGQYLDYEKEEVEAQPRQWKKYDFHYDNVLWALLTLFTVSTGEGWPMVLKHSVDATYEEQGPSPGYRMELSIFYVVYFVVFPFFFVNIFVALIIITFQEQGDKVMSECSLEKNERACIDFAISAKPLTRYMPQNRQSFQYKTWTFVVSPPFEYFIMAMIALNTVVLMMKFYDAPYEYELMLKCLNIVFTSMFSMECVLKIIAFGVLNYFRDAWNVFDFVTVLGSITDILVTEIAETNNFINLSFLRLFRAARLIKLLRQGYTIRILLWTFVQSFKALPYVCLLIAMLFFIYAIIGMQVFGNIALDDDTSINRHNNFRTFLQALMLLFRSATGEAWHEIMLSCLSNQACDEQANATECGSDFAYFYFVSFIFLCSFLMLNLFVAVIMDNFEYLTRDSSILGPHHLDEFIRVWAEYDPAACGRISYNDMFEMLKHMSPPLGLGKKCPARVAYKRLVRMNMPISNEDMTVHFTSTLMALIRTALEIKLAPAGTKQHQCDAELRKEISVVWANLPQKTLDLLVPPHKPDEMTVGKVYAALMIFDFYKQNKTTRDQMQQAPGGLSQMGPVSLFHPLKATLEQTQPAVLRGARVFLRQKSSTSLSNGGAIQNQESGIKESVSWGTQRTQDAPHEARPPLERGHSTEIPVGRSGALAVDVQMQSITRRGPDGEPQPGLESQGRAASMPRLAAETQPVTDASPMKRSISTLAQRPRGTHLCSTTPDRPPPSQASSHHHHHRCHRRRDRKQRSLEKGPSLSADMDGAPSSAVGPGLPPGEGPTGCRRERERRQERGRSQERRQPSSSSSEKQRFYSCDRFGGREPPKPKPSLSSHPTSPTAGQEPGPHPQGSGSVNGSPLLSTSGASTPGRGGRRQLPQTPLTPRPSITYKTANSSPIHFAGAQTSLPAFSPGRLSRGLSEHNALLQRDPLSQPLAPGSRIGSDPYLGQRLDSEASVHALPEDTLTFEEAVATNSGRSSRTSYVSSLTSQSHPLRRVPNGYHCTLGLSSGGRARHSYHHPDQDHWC
T1 sequence (P54289 25-956 partner limits assumed): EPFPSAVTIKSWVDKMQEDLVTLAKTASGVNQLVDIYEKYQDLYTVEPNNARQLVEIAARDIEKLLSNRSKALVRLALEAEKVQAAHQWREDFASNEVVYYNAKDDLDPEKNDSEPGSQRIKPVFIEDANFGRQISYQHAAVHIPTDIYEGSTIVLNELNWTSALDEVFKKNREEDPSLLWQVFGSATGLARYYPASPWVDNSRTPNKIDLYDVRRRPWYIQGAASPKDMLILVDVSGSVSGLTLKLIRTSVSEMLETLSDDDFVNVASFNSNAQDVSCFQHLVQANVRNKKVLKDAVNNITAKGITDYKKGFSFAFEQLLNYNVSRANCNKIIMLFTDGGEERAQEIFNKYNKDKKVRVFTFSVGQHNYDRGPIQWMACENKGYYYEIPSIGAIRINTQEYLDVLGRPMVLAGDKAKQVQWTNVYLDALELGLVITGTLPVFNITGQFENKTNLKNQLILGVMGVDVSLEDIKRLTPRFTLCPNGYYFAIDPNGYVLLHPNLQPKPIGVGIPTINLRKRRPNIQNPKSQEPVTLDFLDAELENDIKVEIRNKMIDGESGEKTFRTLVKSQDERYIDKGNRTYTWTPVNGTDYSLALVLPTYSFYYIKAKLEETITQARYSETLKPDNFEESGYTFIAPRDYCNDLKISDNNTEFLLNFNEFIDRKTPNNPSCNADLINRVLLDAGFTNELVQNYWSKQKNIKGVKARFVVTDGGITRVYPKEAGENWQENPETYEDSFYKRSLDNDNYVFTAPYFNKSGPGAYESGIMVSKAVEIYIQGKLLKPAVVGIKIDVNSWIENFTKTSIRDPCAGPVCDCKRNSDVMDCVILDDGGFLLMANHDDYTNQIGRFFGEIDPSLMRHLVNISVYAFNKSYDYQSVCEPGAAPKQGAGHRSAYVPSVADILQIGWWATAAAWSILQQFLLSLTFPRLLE
T1 sequence (P54289 957-1103 partner limits assumed): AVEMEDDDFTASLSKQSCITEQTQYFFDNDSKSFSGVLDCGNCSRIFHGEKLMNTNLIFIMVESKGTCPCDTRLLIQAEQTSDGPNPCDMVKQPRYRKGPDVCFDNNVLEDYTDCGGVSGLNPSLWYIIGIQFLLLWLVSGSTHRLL
T1 sequence (P54284 whole entry partner): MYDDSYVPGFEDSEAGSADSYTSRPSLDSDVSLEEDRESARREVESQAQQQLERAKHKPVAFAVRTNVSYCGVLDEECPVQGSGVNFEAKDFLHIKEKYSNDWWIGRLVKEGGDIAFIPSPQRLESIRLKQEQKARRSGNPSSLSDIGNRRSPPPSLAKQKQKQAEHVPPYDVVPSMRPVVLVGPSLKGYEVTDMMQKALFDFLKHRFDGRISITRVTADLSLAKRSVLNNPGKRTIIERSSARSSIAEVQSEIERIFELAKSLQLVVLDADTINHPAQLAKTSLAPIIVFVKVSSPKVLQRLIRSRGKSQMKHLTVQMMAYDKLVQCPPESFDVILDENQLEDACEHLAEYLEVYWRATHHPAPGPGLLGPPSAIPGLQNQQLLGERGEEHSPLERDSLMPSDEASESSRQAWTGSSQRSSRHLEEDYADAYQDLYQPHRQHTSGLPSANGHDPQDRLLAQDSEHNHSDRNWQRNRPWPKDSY

Compound | IC50 [nM]
CCOC(=O)C(C)N1CCC(N(C(C)C)S(=O)(=O)c2cccc(C(F)(F)F)c2)CC1 (stereo not drawn) [Compound 8a, 2-[4-[Isopropyl-(3-trifluoromethyl-benzenesulfonyl)amino]piperidin-1-yl}propionic acid ethyl ester] | 1010
CCOC(=O)c1cccnc1N1CCC(N(C2CC2)S(=O)(=O)c2cccc(C(F)(F)F)c2)CC1 [Compound 10b, 4-[Cyclopropyl-(3-trifluoromethyl-benzenesulfonyl)amino]-3,4,5,6-tetrahydro-2H-[1,2′]-bipyridinyl-3′-carboxylic acid ethyl ester] | 1440
CCOC(=O)c1cc(F)cc(N2CCC(N(C3CC3)S(=O)(=O)c3cccc(C(F)(F)F)c3)CC2)c1 [Compound 10c, 3-{-4-[Cyclopropyl-(3-trifluoromethyl-benzenesulfonyl)amino]piperidin-1-yl}-5-fluorobenzoic acid ethyl ester] | 1070
CCOC(=O)c1ccc(N2CCC(N(C3CC3)S(=O)(=O)c3cccc(C(F)(F)F)c3)CC2)cc1 [Compound 10d, 4-{-4-[Cyclopropyl-(3-trifluoromethyl-benzenesulfonyl)amino]piperidin-1-yl}benzoic acid ethyl ester] | 1310
O=C(NCCN1CCC(N(C2CC2)S(=O)(=O)c2cccc(C(F)(F)F)c2)CC1)c1cc(C(F)(F)F)cc(C(F)(F)F)c1 [Compound 14b, N-(2-{4-[Cyclopropyl-(3-trifluoromethylbenzenesulfonyl)amino]piperidin-1-yl}ethyl)-3,5-bis(trifluoromethyl)phenylbenzamide] | 1130
CC(C)N(C1CCN(CC(=O)N2CCCC2)CC1)S(=O)(=O)c1cccc(C(F)(F)F)c1 [Compound 31b, N-Isopropyl-N-[1-(2-oxo-2-pyrrolidin-1-yl-ethyl)-piperidin-4-yl]-3-trifluoromethyl-benzenesulfonamide] | 1610

Further compounds by falling IC50, results first:

IC50 [nM] | Compound
6270 | O=S(=O)(c1cccc(C(F)(F)F)c1)N(C1CC1)C1CCN(c2cc(C(F)(F)F)cc(C(F)(F)F)c2)CC1 [Compound 10e, N-[1-(3,5-Bis-(trifluoromethyl)phenyl)piperidin-1-yl]-N-cyclopropyl-3-trifluoromethylbenzenesulfonamide]
3200 | CC(C)N(C1CCN(CC(=O)NC2CCOC2)CC1)S(=O)(=O)c1cccc(C(F)(F)F)c1 (stereo not drawn) [Compound 31e, 2-{4-[Isopropyl-(3-trifluoromethyl-benzenesulfonyl)-amino]-piperidin-1-yl}-N-(tetrahydrofuran-3-yl)-acetamide]
1600 | CC(C)(C(=O)Nc1ccc(F)cc1Cl)N1CCC(N(C2CC2)S(=O)(=O)c2cccc(C(F)(F)F)c2)CC1 [Compound 21a, N-(2-Chloro-4-fluorophenyl)-2-{-4-[cyclopropyl-(3-trifluoromethyl-benzenesulfonyl)-amino]-piperidin-1-yl}-isobutyramide]
